Results on three molecules are retold here after US20170368055A1, “METHODS FOR TREATING INFECTIONS” (Melinta Therapeutics, Inc., priority 2014, published 2017).

Structures can show the parent of a compound that is named as a salt.

Series [1] in a line: Phase 1 single-dose crossover study: treatment-emergent adverse events. The format is in vivo, human. On the procedure:
The pharmacokinetics and relative bioavailabilities of a 300 mg delafloxacin intravenous dosage form according to Example 1 and a 450 mg dose of oral delafloxacin according to Example 4 were measured in a Phase 1, single-dose, open-label, randomized, 2-period, 2-sequence crossover study. 56 healthy subjects received a single 450-mg dose of oral delafloxacin and a single 300-mg delafloxacin IV infusion in 1 of 2 treatment sequences. Plasma samples were analyzed for delafloxacin concentrations with a validated LC-MS/MS method. Pharmacokinetic parameters were calculated using noncompartmental methods.
16 treatment-emergent AEs (TEAE) were reported, the most frequent of which were headache (5.4%), followed by diarrhea (3.6%). 2 TEAEs were considered moderate in severity, but the remainders were considered mild, and none led to study discontinuation.

Series [2] can be described thus: Clinical trial of oral and intravenous-then-oral delafloxacin regimens: adverse event reporting, incidence of diarrhea. Format: in vivo, human. Particulars: for Abdominal Pain, subjects reporting, number (%) / Diarrhea, subjects reporting, number (%) / Gastrointestinal disorders, subjects reporting, number (%) / Nausea, subjects reporting, number (%): n = 20, safety population; for Percentage of subjects who reported diarrhea: oral capsules.

The mark [3] stands for this setting: 56 healthy subjects, single 450-mg oral dose and single 300-mg IV infusion.
The mark [4] stands for this setting: Regimen C: 300 mg IV then 400 mg oral capsules.
Where [5] appears, read: Regimens A/B: 400-mg oral capsules (4 × 100-mg).

Regarding `Nc1nc(-n2cc(C(=O)O)c(=O)c3cc(F)c(N4CC(O)C4)c(Cl)c32)c(F)cc1F` [delafloxacin, 1-(6-amino-3,5-difluoro-2-pyridinyl)-8-chloro-6-fluoro-1,4-dihydro-7-(3-hydroxy-1-azetidinyl)-4-oxo-3-quinolinecarboxylic acid], in series [1] (setting [3]), the “Diarrhea TEAE frequency” value came to 3.6%, the “Headache TEAE frequency” value is given as 5.4% and the “Number of treatment-emergent AEs (TEAE) reported” value amounted to 16. For the same molecule, the “TEAEs that led to study discontinuation” value in series [1] (in vivo) was “none”. For the same molecule, the “Number of TEAEs considered moderate in severity” value in series [1] (remainders considered mild) is 2.
Consider `CNC[C@H](O)[C@@H](O)[C@H](O)[C@H](O)CO.Nc1nc(-n2cc(C(=O)O)c(=O)c3cc(F)c(N4CC(O)C4)c(Cl)c32)c(F)cc1F` [Meglumine Salt, D-glucitol, 1-deoxy-1-(methylamino)-, 1-(6-amino-3,5-difluoro-2-pyridinyl)-8-chloro-6-fluoro-1,4-dihydro-7-(3-hydroxy-1-azetidinyl)-4-oxo-3-quinolinecarboxylate], for which, in series [2] (setting [4]), the “Abdominal Pain, subjects reporting, number (%)” value (“Abdominal Pain … (%)” below) stood at 0; the “Diarrhea, subjects reporting, number (%)” value is recorded as 0; the “Gastrointestinal disorders, subjects reporting, number (%)” value (“Gastrointestinal disorders … (%)” below) was found to be 0; the “Nausea, subjects reporting, number (%)” value came out at 0. In series [2] (setting [5]), the “Abdominal Pain … (%)” value is on record as 0; the “Diarrhea, subjects reporting, number (%)” value is reported as 3 (15.0%); the “Gastrointestinal disorders … (%)” value is listed as 5 (25.0%); the “Nausea, subjects reporting, number (%)” value stood at 0. Moreover, the Side effects reported entry in series [2] (group with intravenous administration followed by oral treatment) is on record as “No side effect”. Further, the Tolerability result in series [2] (intravenous formulation (300 mg, 3 days) followed by oral formulation (400 mg BID, 4 days)) is on record as “well tolerated”. Moreover, the “Side effects as compared to all-oral formulations” value in series [2] (intravenous formulation followed by oral formulation) is recorded as “reduced side effects”. Also, the “Percentage of subjects who reported diarrhea” value in series [2] was determined as 15.0%.
As to `Nc1nc(-n2cc(C(=O)O)c(=O)c3cc(F)c(N4CC(O)C4)c(Cl)c32)c(F)cc1F` [Potassium Salt], in series [2] (setting [5]), the “Abdominal Pain … (%)” value is listed as 2 (10.0%); the “Diarrhea, subjects reporting, number (%)” value was 3 (15.0%); the “Gastrointestinal disorders … (%)” value is 3 (15.0%); the “Nausea, subjects reporting, number (%)” value is 1 (5.0%). The “Percentage of subjects who reported diarrhea” value in series [2] came out at 15.0%.
